Experimental findings from patent publication US20240270695A1, “COMPOUNDS, COMPOSITIONS AND METHODS OF TREATING DISORDERS” (Chengdu Anticancer Bioscience LTD, priority 2021, published 2024) are described below.

The subject of assay [1] is RPE-Neo or RPE-MYC or RPE-MYC expressing an EGFP-Histone 2B fusion protein. The assay can be described thus: Phenotypic screening assay (arrest in mitosis, change in DNA content, cell death; GE IN-Cell Analyzer 2000). The following applies: Homo sapiens, compounds 20 nM to 20 μM, 24, 48 or 72 hours. The assay is classed as cell-based.
Assay [2] has the same test system. Put plainly: MTT assays of cellular proliferation. The following applies: Homo sapiens, min. effective conc., read-out: Proliferative arrest (<50%). The class given is cell-based. Background: Tetrazolium assays rely on reduction of a dye to a coloured formazan, in cell work by metabolically active cells.
Where [3] appears, read: read-out: Min. Effective conc. for Polyploidy (≥10%).
The mark [4] stands for this setting: min. effective conc., read-out: Cell Death (>30%).
[5] abbreviates: min. effective conc., read-out: Mitotic Arrest (≥10%).

Structures are written as SMILES.

For `CNC(=O)C1CC(=O)N(Cc2c(F)cccc2F)c2ccccc2C1=O` (stereo not shown) [Example 108, 1-(2,6-difluorobenzyl)-5-hydroxy-N-methyl-2-oxo-2,3-dihydro-1H-benzo[b]azepine-4-carboxamide], the minimal effective concentration in assay [1] (setting [3]), in assay [1] (setting [4]), in assay [1] (setting [5]) and in assay [2] was 30 to 1000 µM each time.
Consider `CNC(=O)C1=C(O)c2ccccc2N(Cc2ccc(F)c(C)c2)C(=O)C1` [Example 109, 1-(4-fluoro-3-methylbenzyl)-5-hydroxy-N-methyl-2-oxo-2,3-dihydro-1H-benzo[b]azepine-4-carboxamide], for which the minimal effective concentration was 10 to 30 µM in assay [1] (setting [3]), 30 to 1000 µM in assay [1] (setting [4]), 10 to 30 µM in assay [1] (setting [5]) and 30 to 1000 µM in assay [2].
As to `CNC(=O)C1=C(O)c2ccccc2N(Cc2ccc(OC)c(F)c2)C(=O)C1` [Example 111, 1-(3-fluoro-4-methoxybenzyl)-5-hydroxy-N-methyl-2-oxo-2,3-dihydro-1H-benzo[b]azepine-4-carboxamide], the minimal effective concentration in assay [1] (setting [3]), in assay [1] (setting [4]), in assay [1] (setting [5]) and in assay [2] was 1 to 10 µM each time.
Take `CNC(=O)C1=C(O)c2ccccc2N(Cc2ccc(F)c(OC)c2)C(=O)C1` [Example 112, 1-(4-fluoro-3-methoxybenzyl)-5-hydroxy-N-methyl-2-oxo-2,3-dihydro-1H-benzo[b]azepine-4-carboxamide]: the minimal effective concentration in assay [1] (setting [3]), in assay [1] (setting [4]), in assay [1] (setting [5]) and in assay [2] was 1 to 10 µM in each case.
For the compound `CNC(=O)C1=C(O)c2ccccc2N(Cc2cccc(OC)c2F)C(=O)C1` [Example 113, 1-(2-fluoro-3-methoxybenzyl)-5-hydroxy-N-methyl-2-oxo-2,3-dihydro-1H-benzo[b]azepine-4-carboxamide], the minimal effective concentration in assay [1] (setting [3]), in assay [1] (setting [4]), in assay [1] (setting [5]) and in assay [2] was 10 to 30 µM throughout.
As for `CNC(=O)C1=C(O)c2ccccc2N(Cc2cc(F)ccc2OC)C(=O)C1` [Example 114, 1-(5-fluoro-2-methoxybenzyl)-5-hydroxy-N-methyl-2-oxo-2,3-dihydro-1H-benzo[b]azepine-4-carboxamide], the minimal effective concentration in assay [1] (setting [3]), in assay [1] (setting [4]), in assay [1] (setting [5]) and in assay [2] was 1 to 10 µM in each case.
Take `CNC(=O)C1=C(O)c2ccccc2N(Cc2cc(F)ccc2C)C(=O)C1` [Example 115, 1-(5-fluoro-2-methylbenzyl)-5-hydroxy-N-methyl-2-oxo-2,3-dihydro-1H-benzo[b]azepine-4-carboxamide]: the minimal effective concentration was in the range of 30 to 1000 µM in assay [1] (setting [3]), 30 to 1000 µM in assay [1] (setting [4]), 10 to 30 µM in assay [1] (setting [5]) and 30 to 1000 µM in assay [2].
For `CNC(=O)C1=C(O)c2ccccc2N(Cc2ccc(F)c(Cl)c2)C(=O)C1` [Example 116, 1-(3-chloro-4-fluorobenzyl)-5-hydroxy-N-methyl-2-oxo-2,3-dihydro-1H-benzo[b]azepine-4-carboxamide], the minimal effective concentration in assay [1] (setting [3]), in assay [1] (setting [4]), in assay [1] (setting [5]) and in assay [2] was 30 to 1000 µM each time.
Regarding `CNC(=O)C1=C(O)c2ccccc2N(Cc2ccc(F)c(C#N)c2)C(=O)C1` [Example 117, 1-(3-cyano-4-fluorobenzyl)-5-hydroxy-N-methyl-2-oxo-2,3-dihydro-1H-benzo[b]azepine-4-carboxamide], the minimal effective concentration in assay [1] (setting [3]), in assay [1] (setting [4]), in assay [1] (setting [5]) and in assay [2] was 30 to 1000 µM each time.
As to `CNC(=O)C1=C(O)c2ccccc2N(Cc2ccc(F)c(C(F)(F)F)c2)C(=O)C1` [Example 118, 1-(4-fluoro-3-(trifluoromethyl)benzyl)-5-hydroxy-N-methyl-2-oxo-2,3-dihydro-1H-benzo[b]azepine-4-carboxamide], the minimal effective concentration in assay [1] (setting [3]), in assay [1] (setting [4]), in assay [1] (setting [5]) and in assay [2] was 30 to 1000 µM throughout.
Consider `CNC(=O)C1=C(O)c2ccccc2N(Cc2ccc(C)c(Cl)c2)C(=O)C1` [Example 119, 1-(3-chloro-4-methylbenzyl)-5-hydroxy-N-methyl-2-oxo-2,3-dihydro-1H-benzo[b]azepine-4-carboxamide], for which the minimal effective concentration in assay [1] (setting [3]), in assay [1] (setting [4]), in assay [1] (setting [5]) and in assay [2] was 10 to 30 µM each time.
Regarding `CNC(=O)C1=C(O)c2ccccc2N(Cc2ccc(C)c(Br)c2)C(=O)C1` [Example 120], the minimal effective concentration in assay [1] (setting [3]), in assay [1] (setting [4]), in assay [1] (setting [5]) and in assay [2] was 10 to 30 µM each time.
For the compound `CNC(=O)C1=C(O)c2ccccc2N(Cc2cc(C)c(F)c(C)c2)C(=O)C1` [Example 121, 1-(4-fluoro-3,5-dimethylbenzyl)-5-hydroxy-N-methyl-2-oxo-2,3-dihydro-1H-benzo[b]azepine-4-carboxamide], the minimal effective concentration in assay [1] (setting [3]), in assay [1] (setting [4]), in assay [1] (setting [5]) and in assay [2] was 10 to 30 µM throughout.
`CNC(=O)C1=C(O)c2ccccc2N(Cc2cc(F)c(OC)c(F)c2)C(=O)C1` [Example 122, 1-(3,5-difluoro-4-methoxybenzyl)-5-hydroxy-N-methyl-2-oxo-2,3-dihydro-1H-benzo[b]azepine-4-carboxamide]: the minimal effective concentration in assay [1] (setting [3]), in assay [1] (setting [4]), in assay [1] (setting [5]) and in assay [2] was 30 to 1000 µM in each case.
`CNC(=O)C1=C(O)c2ccccc2N(Cc2ccc(OC)c(C(F)(F)F)c2)C(=O)C1` [Example 123, 5-hydroxy-1-(4-methoxy-3-(trifluoromethyl)benzyl)-N-methyl-2-oxo-2,3-dihydro-1H-benzo[b]azepine-4-carboxamide]: the minimal effective concentration in assay [1] (setting [3]), in assay [1] (setting [4]), in assay [1] (setting [5]) and in assay [2] was 30 to 1000 µM in each case.
As to `CNC(=O)C1=C(O)c2ccccc2N(Cc2ccc(Cl)c(F)c2)C(=O)C1` [Example 124, 1-(4-chloro-3-fluorobenzyl)-5-hydroxy-N-methyl-2-oxo-2,3-dihydro-1H-benzo[b]azepine-4-carboxamide], the minimal effective concentration in assay [1] (setting [3]), in assay [1] (setting [4]), in assay [1] (setting [5]) and in assay [2] was 1 to 10 µM each time.
Turning to `CNC(=O)C1=C(O)c2ccccc2N(Cc2ccc(Br)c(F)c2)C(=O)C1` [Example 125, 1-(4-bromo-3-fluorobenzyl)-5-hydroxy-N-methyl-2-oxo-2,3-dihydro-1H-benzo[b]azepine-4-carboxamide], the minimal effective concentration in assay [1] (setting [3]), in assay [1] (setting [4]), in assay [1] (setting [5]) and in assay [2] was 1 to 10 µM in each case.
Turning to `CNC(=O)C1=C(O)c2ccc(OC)cc2N(Cc2ccc(C)c(F)c2)C(=O)C1` [Example 127, 1-(3-fluoro-4-methylbenzyl)-5-hydroxy-8-methoxy-N-methyl-2-oxo-2,3-dihydro-1H-benzo[b]azepine-4-carboxamide], the minimal effective concentration in assay [1] (setting [3]), in assay [1] (setting [4]), in assay [1] (setting [5]) and in assay [2] was 0.001 to 1 µM in each case.
On to `CCOc1ccc2c(c1)N(Cc1ccc(C)c(F)c1)C(=O)CC(C(=O)NC)=C2O` [Example 128, 8-ethoxy-1-(3-fluoro-4-methylbenzyl)-5-hydroxy-N-methyl-2-oxo-2,3-dihydro-1H-benzo[b]azepine-4-carboxamide], for which the minimal effective concentration in assay [1] (setting [3]), in assay [1] (setting [4]), in assay [1] (setting [5]) and in assay [2] was 1 to 10 µM each time.
`CNC(=O)C1=C(O)c2ccc(OC(F)F)cc2N(Cc2ccc(C)c(F)c2)C(=O)C1` [Example 129, 8-(difluoromethoxy)-1-(3-fluoro-4-methylbenzyl)-5-hydroxy-N-methyl-2-oxo-2,3-dihydro-1H-benzo[b]azepine-4-carboxamide]: the minimal effective concentration in assay [1] (setting [3]), in assay [1] (setting [4]), in assay [1] (setting [5]) and in assay [2] was 0.001 to 1 µM in each case.
Consider `CNC(=O)C1=C(O)c2ccc(Br)cc2N(Cc2ccc(F)c(C)c2)C(=O)C1` [Example 132, 8-bromo-1-(4-fluoro-3-methylbenzyl)-5-hydroxy-N-methyl-2-oxo-2,3-dihydro-1H-benzo[b]azepine-4-carboxamide], for which the minimal effective concentration in assay [1] (setting [3]), in assay [1] (setting [4]), in assay [1] (setting [5]) and in assay [2] was 1 to 10 µM each time.
For the compound `CNC(=O)C1=C(O)c2ccc(OCc3ccc(OC)c(F)c3)cc2N(Cc2ccc(C)c(F)c2)C(=O)C1` [Example 133, 8-((3-fluoro-4-methoxybenzyl)oxy)-1-(3-fluoro-4-methylbenzyl)-5-hydroxy-N-methyl-2-oxo-2,3-dihydro-1H-benzo[b]azepine-4-carboxamide], the minimal effective concentration in assay [1] (setting [3]), in assay [1] (setting [4]), in assay [1] (setting [5]) and in assay [2] was 1 to 10 µM in each case.
